Measured values reported in patent EP4635500A1, “THERAPEUTIC AGENT FOR BACTERIAL INFECTION” (Sumitomo Pharma Co., Ltd., priority 2022, dated 2024).
Values after ≈ are worked out from the molar mass of the structure shown. Where two headings read alike, the source gives them in different places.

Legend:
Experiment in all cases: MIC and MBC, broth microdilution (Example 4, Table 3)
Format in all cases: cell-based
Citrobacter freundii = Citrobacter freundii CDC-157 (NDM-1)
Escherichia coli = tested on: Escherichia coli
Klebsiella pneumoniae = tested on: Klebsiella pneumoniae
[1] = Escherichia coli CDC-150 (NDM-5)

CC(C)(O/N=C(\C(=O)N[C@@H]1C(=O)N2C(C(=O)[O-])=C(C[n+]3ccccc3)CS[C@H]12)c1csc(N)n1)C(=O)O [CAZ, ceftazidime]
MBC (Citrobacter freundii): > 128 µg/mL | MIC (Citrobacter freundii): > 128 µg/mL | MBC/MIC ratio (Escherichia coli): 1 | MBC (Escherichia coli; ATCCBAA2340, Escherichia coli ATCC BAA-2340 (KPC-3), read-out: MBC): 128 µg/mL (≈ 234 µM) | MBC (Escherichia coli; ATCCBAA2469, Escherichia coli ATCC BAA-2469 (NDM-1), read-out: MBC): > 128 µg/mL | MIC (Escherichia coli; ATCCBAA2469, Escherichia coli ATCC BAA-2469 (NDM-1), read-out: MIC): > 128 µg/mL | MBC (Escherichia coli; [1]): >128 µg/mL | MIC (Escherichia coli; [1]): >128 µg/mL | MBC (Escherichia coli; Escherichia coli CDC-162 (NDM-7), read-out: MBC): > 128 µg/mL | MIC (Escherichia coli; Escherichia coli CDC-162 (NDM-7), read-out: MIC): > 128 µg/mL | MBC (Escherichia coli; Escherichia coli NCTC13476 (IMP-1), read-out: MBC): > 128 µg/mL | MIC (Escherichia coli; Escherichia coli NCTC13476 (IMP-1), read-out: MIC): > 128 µg/mL | MIC (Escherichia coli; Escherichia coli, ATCCBAA2340): 128 µg/mL (≈ 234 µM) | MIC (Klebsiella pneumoniae; ATCCBAA2470, Klebsiella pneumoniae ATCC BAA-2470 (NDM-1), read-out: MIC): > 128 µg/mL | MIC (Klebsiella pneumoniae; Klebsiella pneumoniae): > 128 µg/mL | MBC/MIC ratio (Klebsiella pneumoniae; Klebsiella pneumoniae ATCC BAA-2524 (OXA-48)): 1 | MIC (Klebsiella pneumoniae; Klebsiella pneumoniae CDC-505 (NDM-1)): >128 µg/mL | MIC (Klebsiella pneumoniae; Klebsiella pneumoniae KUB3607 (IMP-1)): >128 µg/mL | MIC (Klebsiella pneumoniae; Klebsiella pneumoniae NCTC13440 (VIM-1), read-out: MIC): > 128 µg/mL | MIC (Klebsiella pneumoniae; Klebsiella pneumoniae, ATCCBAA2344): > 128 µg/mL | MBC (Klebsiella pneumoniae; Klebsiella pneumoniae, ATCCBAA2344, Klebsiella pneumoniae ATCC BAA-2344 (KPC-2)): > 128 µg/mL | MBC (Klebsiella pneumoniae; Klebsiella pneumoniae, ATCCBAA2470, Klebsiella pneumoniae ATCC BAA-2470 (NDM-1)): > 128 µg/mL | MBC (Klebsiella pneumoniae; Klebsiella pneumoniae, ATCCBAA2524, Klebsiella pneumoniae ATCC BAA-2524 (OXA-48)): 0.5 µg/mL (≈ 0.915 µM) | MIC (Klebsiella pneumoniae; Klebsiella pneumoniae, ATCCBAA2524, Klebsiella pneumoniae ATCC BAA-2524 (OXA-48), read-out: MIC): 0.5 µg/mL (≈ 0.915 µM) | MBC (Klebsiella pneumoniae; Klebsiella pneumoniae, Klebsiella pneumoniae CDC-112 (KPC-3)): > 128 µg/mL | MBC (Klebsiella pneumoniae; Klebsiella pneumoniae, Klebsiella pneumoniae CDC-505 (NDM-1)): > 128 µg/mL | MBC (Klebsiella pneumoniae; Klebsiella pneumoniae, Klebsiella pneumoniae KUB3607 (IMP-1)): > 128 µg/mL | MBC (Klebsiella pneumoniae; Klebsiella pneumoniae, NCTC13440, Klebsiella pneumoniae NCTC13440 (VIM-1)): > 128 µg/mL
